Data from ChEMBL document CHEMBL3885881, “DrugMatrix”.

Organism: Rattus norvegicus
Assay: DrugMatrix - Regimen: Daily Repeat
Type: toxicity, organism-based, Sprague-Dawley
Design: regimen Daily Repeat, gender Male, age 6-8 weeks
Details: in vivo, po, route oral GAVAGE, vehicle 100 % WATER; for ABSOLUTE BASOPHIL / ABSOLUTE EOSINOPHIL / ABSOLUTE LYMPHOCYTE / ABSOLUTE MONOCYTE / ABSOLUTE SEGMENTED NEUTROPHIL / BASOPHIL / EOSINOPHIL / ERYTHROCYTE COUNT / HEMATOCRIT / HEMOGLOBIN / LEUKOCYTE COUNT / LYMPHOCYTE / MEAN CORPUSCULAR HEMOGLOBIN / MEAN CORPUSCULAR HEMOGLOBIN CONCENTRATION / MEAN CORPUSCULAR VOLUME / MONOCYTE / NEUTROPHIL / NUCLEATED RED BLOOD CELLS / PLATELET COUNT: tissue Blood; for ALANINE AMINOTRANSFERASE / ALKALINE PHOSPHATASE / ASPARTATE AMINOTRANSFERASE / BLOOD UREA NITROGEN / CARBON DIOXIDE / CHLORIDE / CHOLESTEROL / CREATINE PHOSPHOKINASE / CREATININE / GLUCOSE / LACTATE DEHYDROGENASE / LIPASE / PHOSPHORUS / POTASSIUM / SODIUM / TOTAL BILIRUBIN / TOTAL PROTEIN / URIC ACID: tissue Plasma
[1] = 0 mg/kg, 72 h, dose level Control, time 3 day
[2] = 0 mg/kg, 120 h, dose level Control, time 5 day
[3] = 46 mg/kg, 72 h, dose level Low, time 3 day
[4] = 46 mg/kg, 120 h, dose level Low, time 5 day

O=C1NC(=O)C(c2ccccc2)(c2ccccc2)N1 [PHENYTOIN]
ABSOLUTE BASOPHIL [1]: 0 CELLS/uL | ABSOLUTE EOSINOPHIL [1]: 123.17 CELLS/uL | ABSOLUTE LYMPHOCYTE [1]: 12677.83 CELLS/uL | ABSOLUTE MONOCYTE [1]: 66.17 CELLS/uL | ABSOLUTE SEGMENTED NEUTROPHIL [1]: 1149.5 CELLS/uL | BASOPHIL [1]: 0% | EOSINOPHIL [1]: 0.83% | ERYTHROCYTE COUNT [1]: 5.26 x10E6/uL | HEMATOCRIT [1]: 33.07% | HEMOGLOBIN [1]: 13.43 G/DL | LEUKOCYTE COUNT [1]: 14.02 x10E3/uL | LYMPHOCYTE [1]: 90.17% | MEAN CORPUSCULAR HEMOGLOBIN [1]: 25.62 pg | MEAN CORPUSCULAR HEMOGLOBIN CONCENTRATION [1]: 40.65 G/DL | MEAN CORPUSCULAR VOLUME [1]: 63 fL | MONOCYTE [1]: 0.5% | NEUTROPHIL [1]: 8.5% | NUCLEATED RED BLOOD CELLS [1]: 0.17 /100WBC | PLATELET COUNT [1]: 1142.83 x10E3/uL | ALANINE AMINOTRANSFERASE [1]: 45.17 u/L | ALKALINE PHOSPHATASE [1]: 340.17 u/L | ASPARTATE AMINOTRANSFERASE [1]: 77.33 u/L | BLOOD UREA NITROGEN [1]: 14.67 mg/dL | CARBON DIOXIDE [1]: 28.67 mmol/L | CHLORIDE [1]: 101.17 MEQ/L | CHOLESTEROL [1]: 77.67 mg/dL | CREATINE PHOSPHOKINASE [1]: 263.67 u/L | CREATININE [1]: 0.15 mg/dL | GLUCOSE [1]: 169.33 mg/dL | LACTATE DEHYDROGENASE [1]: 230 u/L | LIPASE [1]: 9.67 u/L | PHOSPHORUS [1]: 11.8 mg/dL | POTASSIUM [1]: 5.91 MEQ/L | SODIUM [1]: 142.88 MEQ/L | TOTAL BILIRUBIN [1]: 0.22 mg/dL | TOTAL PROTEIN [1]: 5.7 G/DL | URIC ACID [1]: 1.35 mg/dL | ABSOLUTE BASOPHIL [2]: 0 CELLS/uL | ABSOLUTE EOSINOPHIL [2]: 125 CELLS/uL | ABSOLUTE LYMPHOCYTE [2]: 13809 CELLS/uL | ABSOLUTE MONOCYTE [2]: 351 CELLS/uL | ABSOLUTE SEGMENTED NEUTROPHIL [2]: 1581.67 CELLS/uL | BASOPHIL [2]: 0% | EOSINOPHIL [2]: 0.67% | ERYTHROCYTE COUNT [2]: 5.53 x10E6/uL | HEMATOCRIT [2]: 34.83% | HEMOGLOBIN [2]: 13.9 G/DL | LEUKOCYTE COUNT [2]: 15.87 x10E3/uL | LYMPHOCYTE [2]: 87.5% | MEAN CORPUSCULAR HEMOGLOBIN [2]: 25.25 pg | MEAN CORPUSCULAR HEMOGLOBIN CONCENTRATION [2]: 40.08 G/DL | MEAN CORPUSCULAR VOLUME [2]: 63.05 fL | MONOCYTE [2]: 2.17% | NEUTROPHIL [2]: 9.67% | NUCLEATED RED BLOOD CELLS [2]: 0 /100WBC | PLATELET COUNT [2]: 1044 x10E3/uL | ALANINE AMINOTRANSFERASE [2]: 50.67 u/L | ALKALINE PHOSPHATASE [2]: 395 u/L | ASPARTATE AMINOTRANSFERASE [2]: 86 u/L | BLOOD UREA NITROGEN [2]: 15.33 mg/dL | CARBON DIOXIDE [2]: 29.33 mmol/L | CHLORIDE [2]: 101.5 MEQ/L | CHOLESTEROL [2]: 71.33 mg/dL | CREATINE PHOSPHOKINASE [2]: 323.17 u/L | CREATININE [2]: 0.18 mg/dL | GLUCOSE [2]: 145.67 mg/dL | LACTATE DEHYDROGENASE [2]: 389.5 u/L | LIPASE [2]: 9.83 u/L | PHOSPHORUS [2]: 11.35 mg/dL | POTASSIUM [2]: 6.39 MEQ/L | SODIUM [2]: 142.77 MEQ/L | TOTAL BILIRUBIN [2]: 0.18 mg/dL | TOTAL PROTEIN [2]: 6.1 G/DL | URIC ACID [2]: 1.52 mg/dL | ABSOLUTE BASOPHIL [3]: 0 CELLS/uL | ABSOLUTE EOSINOPHIL [3]: 0 CELLS/uL | ABSOLUTE LYMPHOCYTE [3]: 15884.67 CELLS/uL | ABSOLUTE MONOCYTE [3]: 0 CELLS/uL | ABSOLUTE SEGMENTED NEUTROPHIL [3]: 1248.67 CELLS/uL | BASOPHIL [3]: 0% | EOSINOPHIL [3]: 0% | ERYTHROCYTE COUNT [3]: 5.58 x10E6/uL | HEMATOCRIT [3]: 35.6% | HEMOGLOBIN [3]: 14.27 G/DL | LEUKOCYTE COUNT [3]: 17.13 x10E3/uL | LYMPHOCYTE [3]: 93% | MEAN CORPUSCULAR HEMOGLOBIN [3]: 25.63 pg | MEAN CORPUSCULAR HEMOGLOBIN CONCENTRATION [3]: 40.1 G/DL | MEAN CORPUSCULAR VOLUME [3]: 63.9 fL | MONOCYTE [3]: 0% | NEUTROPHIL [3]: 7% | NUCLEATED RED BLOOD CELLS [3]: 0 /100WBC | PLATELET COUNT [3]: 1336.33 x10E3/uL | ALANINE AMINOTRANSFERASE [3]: 48.67 u/L | ALKALINE PHOSPHATASE [3]: 344.67 u/L | ASPARTATE AMINOTRANSFERASE [3]: 69.33 u/L | BLOOD UREA NITROGEN [3]: 13.67 mg/dL | CARBON DIOXIDE [3]: 33.67 mmol/L | CHLORIDE [3]: 99.67 MEQ/L | CHOLESTEROL [3]: 68.67 mg/dL | CREATINE PHOSPHOKINASE [3]: 151.67 u/L | CREATININE [3]: 0.12 mg/dL | GLUCOSE [3]: 146 mg/dL | LACTATE DEHYDROGENASE [3]: 81.33 u/L | LIPASE [3]: 10 u/L | PHOSPHORUS [3]: 11.37 mg/dL | POTASSIUM [3]: 6.96 MEQ/L | SODIUM [3]: 142.8 MEQ/L | TOTAL BILIRUBIN [3]: 0.2 mg/dL | TOTAL PROTEIN [3]: 5.7 G/DL | URIC ACID [3]: 1.53 mg/dL | ABSOLUTE BASOPHIL [4]: 0 CELLS/uL | ABSOLUTE EOSINOPHIL [4]: 40.67 CELLS/uL | ABSOLUTE LYMPHOCYTE [4]: 11032 CELLS/uL | ABSOLUTE MONOCYTE [4]: 233.67 CELLS/uL | ABSOLUTE SEGMENTED NEUTROPHIL [4]: 793.67 CELLS/uL | BASOPHIL [4]: 0% | EOSINOPHIL [4]: 0.33% | ERYTHROCYTE COUNT [4]: 5.47 x10E6/uL | HEMATOCRIT [4]: 33.93% | HEMOGLOBIN [4]: 13.63 G/DL | LEUKOCYTE COUNT [4]: 12.1 x10E3/uL | LYMPHOCYTE [4]: 91.33% | MEAN CORPUSCULAR HEMOGLOBIN [4]: 24.93 pg | MEAN CORPUSCULAR HEMOGLOBIN CONCENTRATION [4]: 40.17 G/DL | MEAN CORPUSCULAR VOLUME [4]: 62 fL | MONOCYTE [4]: 2% | NEUTROPHIL [4]: 6.33% | NUCLEATED RED BLOOD CELLS [4]: 0 /100WBC | PLATELET COUNT [4]: 1416.33 x10E3/uL | ALANINE AMINOTRANSFERASE [4]: 54 u/L | ALKALINE PHOSPHATASE [4]: 319.67 u/L | ASPARTATE AMINOTRANSFERASE [4]: 264.33 u/L | BLOOD UREA NITROGEN [4]: 17 mg/dL | CARBON DIOXIDE [4]: 24.67 mmol/L | CHLORIDE [4]: 104.33 MEQ/L | CHOLESTEROL [4]: 61.67 mg/dL | CREATINE PHOSPHOKINASE [4]: 2442.67 u/L | CREATININE [4]: 0.27 mg/dL | GLUCOSE [4]: 152 mg/dL | LACTATE DEHYDROGENASE [4]: 827.67 u/L | LIPASE [4]: 10.67 u/L | PHOSPHORUS [4]: 13.43 mg/dL | POTASSIUM [4]: 7.35 MEQ/L | SODIUM [4]: 144.9 MEQ/L | TOTAL BILIRUBIN [4]: 0.2 mg/dL | TOTAL PROTEIN [4]: 6 G/DL | URIC ACID [4]: 3.3 mg/dL
